Several values for one entry are separate records, joined by “and”; a condition that tells them apart may be missing. Identical values can stand only once.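 Grown in 96-well plates, cells were treated for 48 hours with each compound at five concentrations. Insufficient inhibition: endpoint recorded as highest concentration tested. GI50 = concentration required for 50% inhibition of growth. TGI denotes the concentration required for complete inhibition of growth.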
Experiments:
Experiment in all cases: NCI tumour cell line growth inhibition, 48 h
A549 NSCLC = tested on: A549 NSCLC
CCRF-CEM leukemia = tested on: CCRF-CEM leukemia
EKVX NSCLC = tested on: EKVX NSCLC
HCC-2998 colon = tested on: HCC-2998 colon
HOP-62 NSCLC = tested on: HOP-62 NSCLC
OVCAR-5 ovarian = tested on: OVCAR-5 ovarian
SK-MEL-2 melanoma = tested on: SK-MEL-2 melanoma
SK-MEL-5 melanoma = tested on: SK-MEL-5 melanoma
SK-OV-3 ovarian = tested on: SK-OV-3 ovarian
SN12C renal = tested on: SN12C renal

Compound	GI50 (A549 NSCLC)	TGI (A549 NSCLC)	GI50 (CCRF-CEM leukemia)	TGI (CCRF-CEM leukemia)	GI50 (EKVX NSCLC) [µM]	TGI (EKVX NSCLC)	GI50 (HCC-2998 colon)	TGI (HCC-2998 colon)	GI50 (HOP-62 NSCLC)	TGI (HOP-62 NSCLC)	GI50 (OVCAR-5 ovarian) [µM]	TGI (OVCAR-5 ovarian)	GI50 (SK-MEL-2 melanoma)	TGI (SK-MEL-2 melanoma)	GI50 (SK-MEL-5 melanoma)	TGI (SK-MEL-5 melanoma)	GI50 (SK-OV-3 ovarian)	TGI (SK-OV-3 ovarian)	GI50 (SN12C renal)	TGI (SN12C renal)
O=NN(CCCl)C(=O)NC1CCCCC1	45.6 µM and 92.2 µM	184 µM and 244 µM	8.23 µM and 22.6 µM	40.9 µM and 98.4 µM and 57.5 µM	92.3	160 µM and 224 µM	34.5 µM and 64.6 µM	123 µM and 101 µM	51.9 µM and 113 µM	154 µM and 213 µM	247	168 µM and 363 µM	22.7 µM and 194 µM	49.4 µM and 159 µM and 272 µM	23 µM and 78.4 µM	78.5 µM and 133 µM and 209 µM	43.1 µM and 149 µM	162 µM and 232 µM	20.9 µM and 92.8 µM	47.8 µM and 123 µM and 214 µM
[Cl-].[Gd+3].[O-]/N=C(\c1ccccc1)c1ccccn1.[O-]/N=C(\c1ccccc1)c1ccccn1.[O-]/N=C(\c1ccccc1)c1ccccn1	55.2 µM	> 100 µM	34.3 µM	> 100 µM	42.7	> 100 µM	30.7 µM	> 100 µM	41.8 µM	> 100 µM	67.7	> 100 µM	27.1 µM	78.5 µM	48.9 µM	> 100 µM	48 µM	> 100 µM	66.8 µM	> 100 µM
COC(=O)CC1CC2(C(=O)OC)c3[nH]c4ccccc4c3CCN2C1=O (stereo not given)	–	> 100 µM	–	> 100 µM	–	> 100 µM	–	> 100 µM	–	> 100 µM	–	> 100 µM	–	> 100 µM	–	> 100 µM	–	> 100 µM	–	> 100 µM
CC1OC(OC2C(O[C@H]3CC[C@@]4(C)C(=CC[C@H]5[C@@H]6C[C@@H]7O[C@]8(CC[C@@H](C)CO8)[C@@H](C)[C@@H]7[C@@]6(C)CC[C@@H]54)C3)OC(CO)C(OC3OC(CO)C(O)C3O)C2O)C(O)C(O)C1O (stereo not given in full)	0.203 µM	1.3 µM and 0.367 µM	–	0.413 µM	1.05	1.77 µM and 2.23 µM	–	1.19 µM	1.13 µM	1.84 µM and 2.34 µM	1.32	1.53 µM and 2.59 µM	1.46 µM	1.82 µM and 2.78 µM	0.487 µM	1.43 µM and 1.67 µM	1.29 µM	1.76 µM and 2.55 µM	0.243 µM	1.22 µM and 0.678 µM
COc1ccc(/C=C\c2cc(OC)c(OC)c(OC)c2)c(NS(=O)(=O)c2ccc(C(C)(C)C)cc2)c1O	0.626 µM	33 µM	0.468 µM	35.8 µM	0.706	26.3 µM	1.5 µM	15.3 µM	10.1 µM	70.3 µM	0.626	22.3 µM	1.22 µM	20.2 µM	0.345 µM	1.83 µM	1.42 µM	45.9 µM	0.618 µM	21.4 µM
O=C(Nc1ccc(C(F)(F)F)cc1[N+](=O)[O-])c1cccnc1	–	> 100 µM	–	> 100 µM	–	> 100 µM	–	> 100 µM	–	> 100 µM	–	> 100 µM	–	> 100 µM	–	> 100 µM	–	> 100 µM	–	> 100 µM
CC1=C(CNO)C2=C(C)C3(CC3)[C@@](C)(O)C(=O)C2=C1	1.17 µM	17.6 µM	6.6 µM	60.6 µM	2.22	5.98 µM	1.5 µM	3.76 µM	0.61 µM	4.57 µM	1.4	17.4 µM	1.98 µM	4.91 µM	1.68 µM	3.22 µM	1.13 µM	5.22 µM	2.77 µM	> 100 µM
c1cncc(C2ONC3=NCCN32)c1 (stereo not given)	40.5 µM	> 100 µM	21 µM	56.6 µM	23.2	> 100 µM	27.1 µM	94.5 µM	30 µM	91.1 µM	58.3	> 100 µM	68.8 µM	> 100 µM	23.6 µM	> 100 µM	26.2 µM	> 100 µM	14.6 µM	31.7 µM
COc1cc2cc3c(c(O)c2c(O)c1-c1c(OC)cc2cc4c(c(O)c2c1O)C(=O)O[C@H](C)C4)C(=O)O[C@H](C)C3	39.3 µM	> 100 µM	25.3 µM	67.7 µM	16.2	63.9 µM	33 µM	> 100 µM	26.9 µM	62.7 µM	94.2	> 100 µM	50.7 µM	> 100 µM	21.8 µM	39.1 µM	26.5 µM	84 µM	18.3 µM	38.8 µM
C=C(Cl)[C@@](Cl)(CBr)CC[C@@H](Br)C(C)(C)Cl	1.67 µM	4.12 µM and 4.11 µM	20.3 µM	> 100 µM and 53.6 µM	–	15.1 µM and 7 µM	1.27 µM	3.12 µM and 1.65 µM	–	0.606 µM and 0.304 µM	2.45	7.39 µM and 3.22 µM	0.552 µM	2.72 µM and 1.85 µM	19.5 µM	> 100 µM and 21.3 µM	8 µM	22.2 µM and 26.3 µM	–	17.3 µM
C=C(Cn1c2ccccc2c(=O)c2ccccc21)c1ccc(C(=O)Nc2ccccc2N)cc1	28.5 µM	> 100 µM	0.224 µM	19.2 µM	> 21.5	> 100 µM	3.67 µM	> 61.2 µM	> 27.3 µM	> 100 µM	> 100	> 100 µM	> 100 µM	> 100 µM	4.58 µM	> 100 µM	5.99 µM	> 100 µM	> 100 µM	> 100 µM
O=c1[nH]c2ccc([N+](=O)[O-])c(Cl)c2c2ccccc12	–	> 100 µM	–	24.1 µM	–	19.9 µM	–	23.6 µM	–	> 100 µM	–	35.4 µM	–	24.7 µM	–	13 µM	–	4.86 µM	–	14.4 µM
Nc1nc(=S)[nH]c(C(=O)Nc2nccs2)c1-c1ccccc1	–	> 100 µM	–	> 100 µM	–	> 100 µM	–	> 100 µM	–	> 100 µM	–	> 100 µM	–	> 100 µM	–	> 100 µM	–	> 100 µM	–	> 100 µM
O=C(Oc1ccc2c(c1)CN(Cc1ccccc1)CO2)c1ccccc1	–	40.6 µM	–	> 100 µM	–	33.4 µM	–	28.2 µM	–	38.6 µM	–	33.6 µM	–	50.5 µM	–	31.1 µM	–	34 µM	–	34.1 µM

From PubChem BioAssay (NCI)
